Values quoted from earlier work, collected in patent US8927002B2, “Stent with a coating or a basic body containing a lithium salt and use of lithium salts for prevention of restenosis” (Biotronik VI Patent AG, priority 2008, dated 2015).

Columns and labels:
[1] = system: various prostate cancer cell lines; conditions: cell culture; by reducing gene expression in the S-phase of the cell cycle
[2] = system: interleukins (IL-15; IL-8)

[Cl-].[Li+] [lithium chloride]
proliferation of various prostate cancer cell lines [1]: significantly suppresses the proliferation
secretion of certain interleukins (IL-15; IL-8) [2]: increased secretion
